Experimental data reported in paper PMC12621189, “Optimization of Selective and CNS Penetrant Alkyne-Based TREK Inhibitors: The Discovery and Characterization of ONO-9517601 (VU6022856) and ONO-7927846 (VU6024391)” (Journal of Medicinal Chemistry, 2025).
Where “and” joins values, the source holds several entries; their conditions need not be identical. Equal values may be shown once.

Columns and labels:
[1] = system: 5-strains, with and without S9; test: AMES assay (5-strains, with and without S9); assay type: cell-based
KCNQ1/E1 = KCNQ1/E1 (Homo sapiens, UniProt P51787); test: MPC ion channel panel, KCNQ1/E1; assay type: cell-based
Kv4.3 = Kv4.3 (Homo sapiens, UniProt Q9UK17); test: MPC ion channel panel, Kv4.3; assay type: cell-based
human TREK-2 (hTREK-2) = target: T1, human TREK-2 (hTREK-2) (Homo sapiens, UniProt P57789); test: TREK-2 thallium flux assay (HEK293 cells stably expressing hTREK-2); assay type: cell-based; settings: human TREK-2, thallium flux; read-out: h TREK-2 Tl+ IC50
T1 construct: expressed in transfected cells
T1 sequence (P57789 1-538): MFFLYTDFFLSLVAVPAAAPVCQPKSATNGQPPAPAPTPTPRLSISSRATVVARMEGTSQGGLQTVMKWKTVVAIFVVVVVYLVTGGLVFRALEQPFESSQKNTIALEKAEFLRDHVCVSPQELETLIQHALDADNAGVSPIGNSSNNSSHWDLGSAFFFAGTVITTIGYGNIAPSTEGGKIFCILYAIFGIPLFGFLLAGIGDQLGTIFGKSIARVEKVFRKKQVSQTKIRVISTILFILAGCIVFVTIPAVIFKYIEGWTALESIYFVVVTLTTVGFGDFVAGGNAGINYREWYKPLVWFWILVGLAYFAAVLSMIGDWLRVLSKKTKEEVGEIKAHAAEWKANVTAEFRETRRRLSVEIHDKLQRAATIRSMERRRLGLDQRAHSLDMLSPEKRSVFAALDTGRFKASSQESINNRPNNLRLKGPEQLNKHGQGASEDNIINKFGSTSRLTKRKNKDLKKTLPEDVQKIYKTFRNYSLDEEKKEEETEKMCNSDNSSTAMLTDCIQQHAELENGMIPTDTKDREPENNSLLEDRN
Protocol: 0.3% DMSO - ΔRatio of 10 μM control compound)}x100
% inhibition vs compound concentration were plotted in XLfit and calculated IC50.
TREK-2 Thallium flux assay
HEK293 cells stably expressing human TREK-2 (hTREK-2) are plated in 384-well plates, cultured overnight, loaded with Thallos dye the following day. Test compounds or control compound (tert-butyl (3-((4-(benzyloxy)-2-methylphenyl)carbamoyl)-4-chlorophenyl)carbamate) or 0.3% DMSO (vehicle control) which are prepared on separate plates are added to the cell plates and incubated for 10 min, and then the cells were treated with thallium stimulus buffer to initiate […]
To measure the efficacy and potency of test compounds, the change in fluorescence intensity (ΔRatio) and % inhibition are calculated using the following equations: […]

[2] = Brain exposure at the MED (rat NOR); assay type: in vivo; settings: oral, 10 at 1 mg/kg, 11 at 0.3 mg/kg
CYP 1A2 = CYP 1A2 (Homo sapiens, UniProt P05177); test: CYP450 inhibition 1A2; assay type: in vitro ADME
[3] = Rat 4-day dosing general toxicity study; settings: at NOAEL doses, rat 4-day study
A3 = A3 (Homo sapiens, UniProt P0DMS8); test: Functional assay, adenosine A3; assay type: biochemical
[4] = Brain homogenate binding, mouse; assay type: in vitro ADME; settings: bound
Protocol: (§1) concentration), which was aliquoted in triplicate to the ‘bottom half’ of the prepared HTD plate wells. The HTD plate was sealed and incubated for 6 hours at 37 °C. Following incubation, each well (both top and bottom halves) were transferred (20 µL) to the corresponding wells of a 96-shallow-well (V-bottom) plate. The daughter plates were then matrix-matched (DPBS side wells received equal volume of plasma, and plasma side wells received equal volume of DPBS), and extraction solution (120 µL; acetonitrile containing 50 nM carbamazepine as IS) was added to all wells of both daughter plates to precipitate protein and extract test article. […]
(§2) The unbound fraction (f u) was calculated following the equation below, and mean values for each species were calculated from 3 replicates.
(§3) A similar approach was used to determine the degree of brain homogenate binding, which employed the same methodology and procedure with the following modifications: 1) a final compound concentration of 1 μM was used, 2) naïve rat brains were homogenized in DPBS (1:3 composition of brain: DPBS, w/w) using a Mini-Bead Beater™ machine in order to obtain brain homogenate, which was then treated in the same manner as the plasma samples in the previously described plasma protein binding assay. Fraction unbound for both plasma and brain samples was determined using Equation 4. […]

[5] = system: 68 GPCRs, ion channels, and transporters; test: Eurofins Lead Profiling Panel, radioligand binding displacement; settings: 68 targets, 10 μM
[6] = Brain homogenate binding, rat; assay type: in vitro ADME; settings: bound
Protocol: as §1, §2, §3

HCN4 = HCN4 (Homo sapiens, UniProt Q9Y3Q4); test: MPC ion channel panel, HCN4; assay type: cell-based
in vivo = settings: rat, po
Nav1.5 = Nav1.5 (Homo sapiens, UniProt Q14524); test: MPC ion channel panel, Nav1.5; assay type: cell-based
Nav1.5, sequence (Q14524 whole entry): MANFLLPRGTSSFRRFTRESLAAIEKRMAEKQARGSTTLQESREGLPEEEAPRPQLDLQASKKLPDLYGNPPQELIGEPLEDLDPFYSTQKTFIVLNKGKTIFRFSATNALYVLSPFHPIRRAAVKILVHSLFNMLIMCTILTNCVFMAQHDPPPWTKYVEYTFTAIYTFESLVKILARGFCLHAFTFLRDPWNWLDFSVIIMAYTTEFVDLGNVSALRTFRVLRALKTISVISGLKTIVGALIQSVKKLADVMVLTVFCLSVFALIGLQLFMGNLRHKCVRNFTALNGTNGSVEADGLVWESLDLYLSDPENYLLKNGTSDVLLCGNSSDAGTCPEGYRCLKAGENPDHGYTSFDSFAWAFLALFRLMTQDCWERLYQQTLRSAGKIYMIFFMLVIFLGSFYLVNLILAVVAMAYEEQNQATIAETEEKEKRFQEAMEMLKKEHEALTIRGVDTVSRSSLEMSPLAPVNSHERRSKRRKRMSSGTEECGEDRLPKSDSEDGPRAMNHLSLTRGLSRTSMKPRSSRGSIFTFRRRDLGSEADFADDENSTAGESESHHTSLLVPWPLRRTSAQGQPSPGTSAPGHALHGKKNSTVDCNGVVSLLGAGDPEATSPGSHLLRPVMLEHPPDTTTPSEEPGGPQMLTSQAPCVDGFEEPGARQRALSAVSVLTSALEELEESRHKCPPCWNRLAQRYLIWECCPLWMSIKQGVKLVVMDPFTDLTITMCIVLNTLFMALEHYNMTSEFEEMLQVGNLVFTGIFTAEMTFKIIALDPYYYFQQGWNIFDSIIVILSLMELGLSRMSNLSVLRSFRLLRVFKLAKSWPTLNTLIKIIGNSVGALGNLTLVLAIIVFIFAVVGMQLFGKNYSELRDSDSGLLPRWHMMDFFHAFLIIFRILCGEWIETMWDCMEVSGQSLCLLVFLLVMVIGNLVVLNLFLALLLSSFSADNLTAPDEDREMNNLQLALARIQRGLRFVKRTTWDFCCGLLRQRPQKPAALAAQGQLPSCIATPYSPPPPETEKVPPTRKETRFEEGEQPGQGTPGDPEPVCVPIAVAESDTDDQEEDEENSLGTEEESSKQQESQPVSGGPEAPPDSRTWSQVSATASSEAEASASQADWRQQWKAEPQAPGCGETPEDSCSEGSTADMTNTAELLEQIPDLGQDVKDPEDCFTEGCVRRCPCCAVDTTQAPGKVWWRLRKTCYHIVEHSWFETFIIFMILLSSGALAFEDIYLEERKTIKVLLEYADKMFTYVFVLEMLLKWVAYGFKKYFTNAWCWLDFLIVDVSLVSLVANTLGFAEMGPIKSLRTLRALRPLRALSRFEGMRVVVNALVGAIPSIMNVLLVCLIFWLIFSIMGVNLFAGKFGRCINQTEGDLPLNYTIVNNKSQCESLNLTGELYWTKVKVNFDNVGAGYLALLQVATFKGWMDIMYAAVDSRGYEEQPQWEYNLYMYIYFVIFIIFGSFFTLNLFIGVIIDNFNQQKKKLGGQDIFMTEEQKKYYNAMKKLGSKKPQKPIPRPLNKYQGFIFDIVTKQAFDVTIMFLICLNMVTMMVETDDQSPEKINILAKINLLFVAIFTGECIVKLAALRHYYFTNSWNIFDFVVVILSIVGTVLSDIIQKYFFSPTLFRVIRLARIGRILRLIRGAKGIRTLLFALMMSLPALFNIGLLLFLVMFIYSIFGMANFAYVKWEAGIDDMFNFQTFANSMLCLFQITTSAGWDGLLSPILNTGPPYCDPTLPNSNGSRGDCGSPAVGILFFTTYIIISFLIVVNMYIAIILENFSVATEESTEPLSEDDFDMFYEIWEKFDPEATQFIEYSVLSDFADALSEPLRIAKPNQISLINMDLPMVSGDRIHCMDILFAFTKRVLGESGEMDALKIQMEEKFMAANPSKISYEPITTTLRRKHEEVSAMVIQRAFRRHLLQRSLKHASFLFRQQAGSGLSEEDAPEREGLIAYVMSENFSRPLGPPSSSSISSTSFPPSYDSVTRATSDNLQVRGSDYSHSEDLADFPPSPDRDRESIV

CYP 1A2, sequence (P05177 whole entry): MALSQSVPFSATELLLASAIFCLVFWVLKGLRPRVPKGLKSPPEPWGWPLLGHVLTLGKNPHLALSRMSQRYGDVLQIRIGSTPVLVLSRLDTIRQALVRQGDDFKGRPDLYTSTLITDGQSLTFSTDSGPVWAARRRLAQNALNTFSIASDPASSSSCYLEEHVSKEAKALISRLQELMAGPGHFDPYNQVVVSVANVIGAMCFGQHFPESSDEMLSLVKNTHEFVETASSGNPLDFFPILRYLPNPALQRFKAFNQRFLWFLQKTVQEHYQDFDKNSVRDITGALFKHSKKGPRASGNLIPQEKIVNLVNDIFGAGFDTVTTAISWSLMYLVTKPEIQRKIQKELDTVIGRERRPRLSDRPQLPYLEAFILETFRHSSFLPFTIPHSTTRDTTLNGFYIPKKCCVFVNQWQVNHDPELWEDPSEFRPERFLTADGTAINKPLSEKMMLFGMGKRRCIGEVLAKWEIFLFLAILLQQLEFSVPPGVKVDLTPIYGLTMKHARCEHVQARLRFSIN
HCN4, sequence (Q9Y3Q4 whole entry): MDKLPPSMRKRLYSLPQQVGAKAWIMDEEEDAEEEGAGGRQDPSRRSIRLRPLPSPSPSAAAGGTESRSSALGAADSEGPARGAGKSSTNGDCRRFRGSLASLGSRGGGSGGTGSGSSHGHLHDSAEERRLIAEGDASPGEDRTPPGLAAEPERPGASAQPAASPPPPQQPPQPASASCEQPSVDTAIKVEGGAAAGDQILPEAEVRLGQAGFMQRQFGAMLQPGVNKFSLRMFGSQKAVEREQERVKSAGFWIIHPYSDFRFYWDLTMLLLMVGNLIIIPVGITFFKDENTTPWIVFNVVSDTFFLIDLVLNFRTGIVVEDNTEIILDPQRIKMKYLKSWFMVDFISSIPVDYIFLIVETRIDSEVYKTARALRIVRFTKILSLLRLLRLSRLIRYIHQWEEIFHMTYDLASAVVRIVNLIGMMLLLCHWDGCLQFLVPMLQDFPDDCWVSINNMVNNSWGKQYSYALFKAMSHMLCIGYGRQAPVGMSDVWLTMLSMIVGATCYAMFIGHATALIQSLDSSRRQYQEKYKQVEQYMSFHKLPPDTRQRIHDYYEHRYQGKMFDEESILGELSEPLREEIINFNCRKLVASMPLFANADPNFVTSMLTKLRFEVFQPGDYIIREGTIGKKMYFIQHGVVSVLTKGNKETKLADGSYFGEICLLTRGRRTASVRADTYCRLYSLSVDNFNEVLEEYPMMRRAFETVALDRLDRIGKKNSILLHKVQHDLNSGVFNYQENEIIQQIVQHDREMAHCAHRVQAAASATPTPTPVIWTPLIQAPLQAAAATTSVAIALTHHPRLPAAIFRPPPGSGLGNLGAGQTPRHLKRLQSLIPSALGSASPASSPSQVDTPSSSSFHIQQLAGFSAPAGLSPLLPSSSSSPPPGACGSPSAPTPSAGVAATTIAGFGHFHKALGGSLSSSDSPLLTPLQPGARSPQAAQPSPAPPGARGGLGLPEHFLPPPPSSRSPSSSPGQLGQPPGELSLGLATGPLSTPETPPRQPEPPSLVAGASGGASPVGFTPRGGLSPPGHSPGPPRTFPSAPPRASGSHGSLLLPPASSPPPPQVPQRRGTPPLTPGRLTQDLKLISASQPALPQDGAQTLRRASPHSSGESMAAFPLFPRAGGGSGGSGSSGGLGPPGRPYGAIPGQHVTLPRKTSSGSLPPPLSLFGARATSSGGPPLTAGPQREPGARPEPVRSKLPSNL
Kv4.3, sequence (Q9UK17 whole entry): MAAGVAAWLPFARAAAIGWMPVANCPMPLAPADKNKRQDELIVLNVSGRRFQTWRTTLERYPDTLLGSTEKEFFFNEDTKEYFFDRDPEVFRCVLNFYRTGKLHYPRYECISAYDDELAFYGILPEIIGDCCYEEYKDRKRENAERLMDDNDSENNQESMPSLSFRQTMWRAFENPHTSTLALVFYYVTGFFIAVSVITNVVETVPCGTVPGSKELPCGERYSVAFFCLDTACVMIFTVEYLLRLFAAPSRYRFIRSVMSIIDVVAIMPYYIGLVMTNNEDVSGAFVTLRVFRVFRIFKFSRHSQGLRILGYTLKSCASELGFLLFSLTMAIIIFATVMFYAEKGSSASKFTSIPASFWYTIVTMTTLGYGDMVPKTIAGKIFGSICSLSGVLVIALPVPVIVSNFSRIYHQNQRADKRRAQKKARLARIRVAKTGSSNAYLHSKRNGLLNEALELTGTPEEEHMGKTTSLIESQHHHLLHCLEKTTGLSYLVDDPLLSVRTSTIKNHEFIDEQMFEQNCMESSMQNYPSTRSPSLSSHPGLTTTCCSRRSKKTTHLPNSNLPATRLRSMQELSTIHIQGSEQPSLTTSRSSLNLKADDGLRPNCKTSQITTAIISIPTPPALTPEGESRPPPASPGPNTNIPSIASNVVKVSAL
A3, sequence (P0DMS8 whole entry): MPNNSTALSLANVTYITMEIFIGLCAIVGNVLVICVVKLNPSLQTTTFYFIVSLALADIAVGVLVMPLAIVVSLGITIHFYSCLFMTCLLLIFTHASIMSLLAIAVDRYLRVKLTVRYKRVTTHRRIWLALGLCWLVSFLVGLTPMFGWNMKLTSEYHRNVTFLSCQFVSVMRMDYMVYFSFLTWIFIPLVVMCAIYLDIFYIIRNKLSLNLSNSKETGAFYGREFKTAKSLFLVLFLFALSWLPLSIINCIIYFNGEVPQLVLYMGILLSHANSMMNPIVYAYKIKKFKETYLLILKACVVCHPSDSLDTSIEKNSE

Row | Compound | AMES [1] | inhibition at 10 µM (KCNQ1/E1) [%] | inhibition at 10 µM (Kv4.3) [%] | IC50 (human TREK-2 (hTREK-2)) [µM] | Cmax [2] [nM] | IC50 (CYP 1A2) [µM] | safety margin based on the AUC [3] | IC50 (A3) [µM] | BHB mouse [4] | targets with >50% inhibition in Lead Profiling Panel [5] | BHB rat [6] | inhibition at 10 µM (HCN4) [%] | NOAEL at 4 days (in vivo) [mg/kg] | inhibition at 10 µM (Nav1.5) [%]
1 | CC(=O)N1CCC(n2ncc(Cl)c2C(=O)Nc2ncc(C#Cc3ccccc3)cc2C)CC1 [Compound 10, 1-(1-Acetylpiperidin-4-yl)-4-chloro-N-(3-methyl-5-(phenylethynyl)pyridin-2-yl)-1H-pyrazole-5-carboxamide] | Negative | ≤ 50 | ≤ 50 | 0.23 | 218 | 23.6 | more than 10 fold | 5.37 | 99.5% and 99.5, 99.5% | only two targets displayed >50% inhibition | 99.5% and 99.5, 99.5% | ≤ 50 | 10 | ≤ 50
2 | CC(=O)N1CC[C@@H](n2ncc(Cl)c2C(=O)Nc2ncc(C#Cc3ccc(F)cc3)cc2C)[C@H](F)C1 [Compound 11, 1-((3R,4R)-1-Acetyl-3-fluoropiperidin-4-yl)-4-chloro-N-(5-((4-fluorophenyl)ethynyl)-3-methylpyridin-2-yl)-1H-pyrazole-5-carboxamide] | Negative | 60 | ≤ 50 | 0.29 | 58 | > 30 | more than 10 fold | 19.8 | 99.5% | only two targets displayed >50% inhibition | 99.4% | ≤ 50 | 6 | ≤ 50
